Reference: article PMC7926352, “Synthesis, Characterization and In Vitro Evaluation of Novel 5-Ene-thiazolo[3,2-b][1,2,4]triazole-6(5H)-ones as Possible Anticancer Agents” (Molecules, 2021)
Where two headings read alike, the source gives them in different places.

Columns and labels:
[1] = test system: panel of approximately sixty human tumor cell lines; assay: NCI-60 human tumor cell lines screen (SRB), full panel; assay type: cell-based; settings: for GI50: read-out: GI50, Total MG_MID; for Positive Cytostatic Effect: ratio of number of cell lines with percent growth from 0 to 50 to total number of cell lines
Procedure: Compounds 2a, 2c–f, 2h–l, 3, 5e, 5f were selected for antitumor activity which was performed according to the standard protocols of National Cancer Institute (NCI, Bethesda, MD, USA) Developmental Therapeutic Program (DTP). At the prescreening stage, the compounds were evaluated for antitumor activity at the concentration of 10 µM against a panel of approximately sixty cancer cell lines representing different types of cancer including leukemia, melanoma, lung, colon, CNS, ovarian, renal, prostate and breast cancers.
Among them, three compounds (2d, 2h, 2i) presented excellent cytotoxic and four derivatives (2d, 2h, 2i, 2k) cytostatic properties in one or more cell lines when applied at a concentration of 10 µM. […] The outcomes were calculated and presented in the form of three response parameters (GI50, TGI and LC50) for each cell line via growth percentage inhibition curves. […]
The primary anticancer assay was performed on a panel of approximately sixty human tumor cell lines derived from nine neoplastic diseases (leukemia, melanoma, lung, colon, CNS, ovarian, renal, prostate, and breast cancers), in accordance with the protocol of the National Cancer Institute Drug Evaluation Branch (Bethesda, MD, USA). Tested compounds were added to the culture at a single concentration (10^−5 M) and the cultures were incubated for 48 h. End-point determinations were made with a protein-binding dye, sulforhodamine B (SRB). Results for each tested compound were reported as the percentage of the growth of the treated cells when compared to the untreated control cells. The percentage of the growth was evaluated spectrophotometrically versus controls not treated with test agents. […] Using absorbance measurements [time zero (Tz), control growth in the absence of drug (C), and test growth in the presence of the drug (Ti)], the percentage growth was calculated for each drug concentration. Percentage growth inhibition was calculated as:[(Ti − Tz)/[…]] × 100(1) for concentrations for which Ti ≥ Tz, [(Ti − Tz)/Tz] × 100 for concentrations for which Ti < Tz. Dose-response parameters (GI50, TGI) were calculated for each compound. Growth inhibition of 50% (GI50) was calculated from [(Ti − Tz)/(C − Tz)] × 100 = 50, which is the drug concentration resulting in a 50% lower net protein increase in the treated cells (measured by SRB staining) as compared to the net protein increase seen in the control cells. The drug concentration resulting in total growth inhibition (TGI) was calculated from Ti = Tz. Values were calculated for each of these parameters if the level of activity was reached; however, if the effect was not reached or was excessive, the value for that parameter was expressed as more or less than the maximum or minimum concentration tested. The lowest values were obtained with the most sensitive cell lines. Compounds having GI50 values ≤ 100 μM were declared to be active. The selectivity index (SI) calculated by dividing the full panel MG_MID (full-panel mean-graph midpoint) (μM) of the compounds 2h and 2i by their individual subpanel MG_MID of a cell line (μM) was considered as a measure of compounds’ selectivity. Ratios between 3 and 6 mean moderate selectivity, ratios greater than 6 indicate high selectivity toward the corresponding cell line, while compounds not meeting either of these criteria are rated nonselective.

A549/ATCC = assay type: cell-based; settings: NSCLC; for CC50: read-out: LC50 (the source's name)
[2] = 60 cell lines assay in one dose, 10 μM, 48 h

For “Ethyl(Z)-4-(3-(4-chloro-2-((6-oxothiazolo[3,2-b][1,2,4]triazol-5(6H)-ylidene)methyl)phenyl)propanamido)benzoate [Compound 2i]”, which “Mean Growth, %” value [1, 2] is on record?
Its value is 61.05%.

And the “Range of Growth, %” value [1, 2]?
Its value is −22.54 to 122.94%.

And the “TGI, Total MG_MID” value ([1]; full panel average)?
Its value is 28.18 µM.

And the GI50 ([1]; full panel average)?
Its GI50 is 11 µM.

What about the “Positive Cytostatic Effect” value ([1]; one dose, 10 μM) of the same compound?
Its value is 17/58.

And the GI50 (A549/ATCC)?
The GI50 was 19.5 µM.

And the TGI (A549/ATCC)?
Its TGI is 39.81 µM.

What about the CC50 (A549/ATCC) of the same compound?
The CC50 was 79.4 µM.

What about the GI50 (RPMI-8226; RPMI-8226, Leukemia) of the same compound?
Its GI50 is 5.37 µM.

And the TGI (RPMI-8226; RPMI-8226, Leukemia)?
The TGI was 25.70 µM.

And the GI50 (NCI-H460; NCI-H460, NSCLC)?
Its GI50 is 13.5 µM.

What about the TGI (NCI-H460; NCI-H460, NSCLC) of the same compound?
Its TGI is 27.54 µM.

What about the GI50 (SW-620; SW-620, Colon cancer) of the same compound?
The GI50 was 9.99 µM.

And the TGI (SW-620; SW-620, Colon cancer)?
The TGI was 21.37 µM.

And the GI50 (SF-295; SF-295, CNS Cancer)?
The GI50 was 10.5 µM.

And the TGI (SF-295; SF-295, CNS Cancer)?
Its TGI is 23.44 µM.

And the GI50 (SF-539; SF-539, CNS Cancer)?
Its GI50 is 12.6 µM.

What about the TGI (SF-539; SF-539, CNS Cancer) of the same compound?
The TGI was 25.11 µM.

And the GI50 (U251; U251, CNS Cancer)?
The GI50 was 6.6 µM.

What about the TGI (U251; U251, CNS Cancer) of the same compound?
The TGI was 19.05 µM.

What about the GI50 (MALME-3M; MALME-3M, Melanoma) of the same compound?
The GI50 was 14.8 µM.

What about the TGI (MALME-3M; MALME-3M, Melanoma) of the same compound?
Its TGI is 28.18 µM.

And the GI50 (M14; M14, Melanoma)?
Its GI50 is 12.6 µM.

What about the TGI (M14; M14, Melanoma) of the same compound?
The TGI was 27.54 µM.

What about the GI50 (OVCAR-5; OVCAR-5, Ovarian Cancer) of the same compound?
Its GI50 is 15.5 µM.

What about the TGI (OVCAR-5; OVCAR-5, Ovarian Cancer) of the same compound?
The TGI was 30.19 µM.

And the GI50 (OVCAR-8; OVCAR-8, Ovarian Cancer)?
Its GI50 is 13.5 µM.

And the TGI (OVCAR-8; OVCAR-8, Ovarian Cancer)?
The TGI was 33.88 µM.

And the GI50 (786-0; 786-0, Renal Cancer)?
Its GI50 is 11.2 µM.

And the TGI (786-0; 786-0, Renal Cancer)?
The TGI was 23.98 µM.

What about the GI50 (DU-145; DU-145, Prostate Cancer) of the same compound?
The GI50 was 3.98 µM.

What about the TGI (DU-145; DU-145, Prostate Cancer) of the same compound?
The TGI was 16.21 µM.

And the GI50 (MCF7; MCF7, Breast Cancer)?
Its GI50 is 5.12 µM.

What about the TGI (MCF7; MCF7, Breast Cancer) of the same compound?
The TGI was 19.05 µM.

What about the GI50 (MDA-MB-231/ATCC; MDA-MB-231/ATCC, Breast Cancer) of the same compound?
Its GI50 is 12.3 µM.

What about the TGI (MDA-MB-231/ATCC; MDA-MB-231/ATCC, Breast Cancer) of the same compound?
Its TGI is 26.91 µM.

With O=C(COc1ccc(Cl)cc1/C=c1\sc2ncnn2c1=O)Nc1ccc(Cl)cc1 [Compound 2h, (Z)-2-(4-Chloro-2-((6-oxothiazolo[3,2-b][1,2,4]triazol-5(6H)-ylidene)methyl)phenoxy)-N-(4-chlorophenyl)acetamide] as the compound, how does the activity at 10 µM ([1]; Homo sapiens, 60 cell lines assay in one dose, 10 μM, 48 h, read-out: Mean Growth, %) read?
Its activity at 10 µM is 29%.

And the activity at 10 µM ([1]; Homo sapiens, 60 cell lines assay in one dose, 10 μM, 48 h, read-out: Range of Growth, %)?
Its activity at 10 µM is -48 to 122%.

What about the GI50 ([1]; Homo sapiens, full panel average) of the same compound?
Its GI50 is 3.54 µM.

And the CC50 ([1]; Homo sapiens, full panel average, read-out: LC50, Total MG_MID)?
The CC50 was 37.1 µM.

And the “TGI, Total MG_MID” value ([1]; full panel average)?
Its value is 12.88 µM.

What about the “Positive Cytostatic Effect” value ([1]; one dose, 10 μM) of the same compound?
The value was 30/57.

And the “Positive Cytotoxic Effect” value ([1]; one dose, 10 μM, ratio of number of cell lines with percent growth of <0 to total number of cell lines)?
The value was 12/57.

What about the GI50 (A549/ATCC; Homo sapiens) of the same compound?
The GI50 was 15.5 µM.

And the CC50 (A549/ATCC; Homo sapiens)?
Its CC50 is 60.2 µM.

And the TGI (A549/ATCC)?
The TGI was 30.90 µM.

And the GI50 (RPMI-8226; Homo sapiens, RPMI-8226)?
Its GI50 is 1.69 µM.

What about the CC50 (RPMI-8226; Homo sapiens, RPMI-8226, read-out: LC50) of the same compound?
Its CC50 is 26.9 µM.

What about the TGI (RPMI-8226; RPMI-8226, Leukemia) of the same compound?
Its TGI is 4.89 µM.

What about the GI50 (NCI-H460; Homo sapiens, NCI-H460) of the same compound?
The GI50 was 11.5 µM.

What about the CC50 (NCI-H460; Homo sapiens, NCI-H460, read-out: LC50) of the same compound?
Its CC50 is 49 µM.

What about the TGI (NCI-H460; NCI-H460, NSCLC) of the same compound?
The TGI was 23.44 µM.

And the GI50 (SW-620; Homo sapiens, SW-620)?
The GI50 was 4.26 µM.

What about the CC50 (SW-620; Homo sapiens, SW-620, read-out: LC50) of the same compound?
The CC50 was 38 µM.

And the TGI (SW-620; SW-620, Colon cancer)?
The TGI was 14.79 µM.

What about the GI50 (SF-295; Homo sapiens, SF-295) of the same compound?
The GI50 was 1.86 µM.

What about the CC50 (SF-295; Homo sapiens, SF-295, read-out: LC50) of the same compound?
The CC50 was 18.6 µM.

What about the TGI (SF-295; SF-295, CNS Cancer) of the same compound?
Its TGI is 5.24 µM.

And the GI50 (SF-539; Homo sapiens, SF-539)?
Its GI50 is 1.77 µM.

What about the CC50 (SF-539; Homo sapiens, SF-539, read-out: LC50) of the same compound?
Its CC50 is 12.6 µM.

And the TGI (SF-539; SF-539, CNS Cancer)?
The TGI was 4.46 µM.

What about the GI50 (U251; Homo sapiens, U-251) of the same compound?
The GI50 was 4.07 µM.

And the CC50 (U251; Homo sapiens, U-251, read-out: LC50)?
The CC50 was 38 µM.

And the TGI (U251; U251, CNS Cancer)?
Its TGI is 14.45 µM.

What about the GI50 (MALME-3M; Homo sapiens, Malme-3M) of the same compound?
Its GI50 is 7.94 µM.

What about the CC50 (MALME-3M; Homo sapiens, Malme-3M, read-out: LC50) of the same compound?
The CC50 was 45.7 µM.

What about the TGI (MALME-3M; MALME-3M, Melanoma) of the same compound?
Its TGI is 20.89 µM.

And the GI50 (M14; Homo sapiens, M14)?
Its GI50 is 8.31 µM.

And the CC50 (M14; Homo sapiens, M14, read-out: LC50)?
The CC50 was 45.7 µM.

And the TGI (M14; M14, Melanoma)?
The TGI was 20.89 µM.

What about the GI50 (OVCAR-5; Homo sapiens, OVCAR-5) of the same compound?
The GI50 was 11.2 µM.

And the CC50 (OVCAR-5; Homo sapiens, OVCAR-5, read-out: LC50)?
Its CC50 is 47.9 µM.

What about the TGI (OVCAR-5; OVCAR-5, Ovarian Cancer) of the same compound?
The TGI was 23.44 µM.

And the GI50 (OVCAR-8; Homo sapiens, OVCAR-8)?
The GI50 was 3.16 µM.

And the CC50 (OVCAR-8; Homo sapiens, OVCAR-8, read-out: LC50)?
Its CC50 is 41.7 µM.

And the TGI (OVCAR-8; OVCAR-8, Ovarian Cancer)?
The TGI was 12.88 µM.

And the TGI (786-0; 786-0, Renal Cancer)?
The TGI was 15.84 µM.

What about the GI50 (786-0; Homo sapiens, 786-0) of the same compound?
The GI50 was 4.16 µM.

What about the CC50 (786-0; Homo sapiens, 786-0, read-out: LC50) of the same compound?
Its CC50 is 39.8 µM.

And the TGI (DU-145; DU-145, Prostate Cancer)?
Its TGI is 4.46 µM.

And the GI50 (DU-145; Homo sapiens, DU-145)?
The GI50 was 1.54 µM.

What about the CC50 (DU-145; Homo sapiens, DU-145, read-out: LC50) of the same compound?
The CC50 was 15.8 µM.

What about the GI50 (MCF7; Homo sapiens, MCF7) of the same compound?
Its GI50 is 0.79 µM.

And the CC50 (MCF7; Homo sapiens, MCF7, read-out: LC50)?
The CC50 was 19.5 µM.

What about the TGI (MCF7; MCF7, Breast Cancer) of the same compound?
The TGI was 4.07 µM.

And the GI50 (MDA-MB-231/ATCC; Homo sapiens, MDA-MB-231)?
The GI50 was under 0.01 µM.

And the CC50 (MDA-MB-231/ATCC; Homo sapiens, MDA-MB-231, read-out: LC50)?
Its CC50 is 75.9 µM.

And the TGI (MDA-MB-231/ATCC; MDA-MB-231/ATCC, Breast Cancer)?
Its TGI is 11.48 µM.
